Assay results taken from patent US9840475B2, “N-(substituted)-5-fluoro-4-imino-3-methyl-2-oxo-3,4-dihydropyrimidine-1(2H)-carboxamide derivatives” (Adama Makhteshim Ltd., priority 2012, dated 2017).
Read-outs that look alike come from different tables or passages of the source.

How the values were obtained:
[1] = system: Mycosphaerella graminicola; anamorph: Septoria tritici; Bayer code SEPTTR; test: Evaluation of fungicidal activity: leaf blotch of wheat (SEPTTR), disease control on wheat plants; format: in vivo; conditions: Zymoseptoria tritici
Method: Evaluation of Fungicidal Activity: Leaf Blotch of Wheat (Mycosphaerella graminicola; anamorph: Septoria tritici; Bayer code […]) Wheat plants (variety Yuma) were grown from seed in a greenhouse in 50% mineral soil/50% soil-less Metro mix until the first leaf was fully emerged, with 7-10 seedlings per pot. These plants were inoculated with an aqueous spore suspension of Septoria tritici either prior to or after fungicide treatments. After inoculation the plants were kept in 100% relative humidity (one day in a dark dew chamber followed by two to three days in a lighted dew chamber) to permit spores to germinate and infect the leaf. The plants were then transferred to a greenhouse for disease to develop. The following table presents the activity of typical compounds of the present disclosure when evaluated in these experiments. The effectiveness of the test compounds in controlling disease was determined by assessing the severity of disease on treated plants, then converting the severity to percent control based on the level of disease on untreated, inoculated plants.

[2] = 24 h, 100 ppm, one-day protectant, wheat plants (variety Yuma), percent control vs untreated, inoculated plants, read-out: SEPTTR 100 PPM 1DP (One-Day Protectant activity, % disease control rating)
[3] = 72 h, 100 ppm, three-day curative, wheat plants (variety Yuma), percent control vs untreated, inoculated plants, read-out: SEPTTR 100 PPM 3DC (Three-Day Curative activity, % disease control rating)
[4] = 24 h, read-out: SEPTTR 100 PPM 1DP (One-Day Protectant activity, % disease control rating)
[5] = 72 h, read-out: SEPTTR 100 PPM 3DC (Three-Day Curative activity, % disease control rating)

melting point [°C]	Structure (SMILES)	pest or weed control at 100 ppm [1, 2] [%]	pest or weed control at 100 ppm [1, 3] [%]	pest or weed control at 100 ppm [1, 4] [%]	pest or weed control at 100 ppm [1, 5] [%]
194 to 196	Cn1c(=N)c(F)cn(C(=O)Nc2ccc(F)cc2)c1=O [Compound 13]	0 to 25	26 to 50		
204.1 to 205.5	Cn1c(=N)c(F)cn(C(=O)Nc2cccc(C#N)c2)c1=O [Compound 15]	0 to 25	26 to 50		
168.3 to 169.6	COc1ccc(OC)c(NC(=O)n2cc(F)c(=N)n(C)c2=O)c1 [Compound 17]	76 to 100	76 to 100		
192.4 to 195.7	Cn1c(=N)c(F)cn(C(=O)Nc2ccc(C(F)(F)F)cc2)c1=O [Compound 11]	0 to 25	0 to 25		
194.3 to 196.3	COc1ccc(NC(=O)n2cc(F)c(=N)n(C)c2=O)cc1F [Compound 19]	76 to 100	26 to 50		
195.5 to 196.3	COc1cccc(NC(=O)n2cc(F)c(=N)n(C)c2=O)c1 [Compound 21]	0 to 25	0 to 25		
210 to 213	Cc1cc(NC(=O)n2cc(F)c(=N)n(C)c2=O)c(C)cc1Cl [Compound 20]	51 to 75	26 to 50		
192.9 to 193.5	Cc1ccc(NC(=O)n2cc(F)c(=N)n(C)c2=O)cc1Cl [Compound 16]	76 to 100	26 to 50		
197.5 to 199.4	Cn1c(=N)c(F)cn(C(=O)Nc2cccc(F)c2)c1=O [Compound 12]	51 to 75	0 to 25		
203.6 to 205.5	Cn1c(=N)c(F)cn(C(=O)Nc2ccc(F)cc2Cl)c1=O [Compound 18]	51 to 75	0 to 25		

Continued, compound first:

Structure (SMILES)	melting point [°C]	pest or weed control at 100 ppm [1, 2] [%]	pest or weed control at 100 ppm [1, 3] [%]	pest or weed control at 100 ppm [1, 4] [%]	pest or weed control at 100 ppm [1, 5] [%]
Cn1c(=N)c(F)cn(C(=O)Nc2cc(Cl)cc(Cl)c2)c1=O [Compound 14]	210 to 213.1			0 to 25	0 to 25
Cn1c(=N)c(F)cn(C(=O)Nc2ccsc2)c1=O [Compound 7]	194.2 to 195.2	51 to 75	76 to 100		
Cn1c(=N)c(F)cn(C(=S)Nc2cc(Cl)cc(Cl)c2)c1=O [Compound 22]		51 to 75	26 to 50		
COc1ccc(NC(=O)n2cc(F)c(=N)n(C)c2=O)cc1 [Compound 4]	194.8 to 195.4			51 to 75	26 to 50
Cn1c(=N)c(F)cn(C(=O)Nc2ccccc2)c1=O	192.3 to 194.4				
Cc1cccc(NC(=O)n2cc(F)c(=N)n(C)c2=O)c1 [Compound 10]	188.5 to 192.4	0 to 25	51 to 75		
Cn1c(=N)c(F)cn(C(=O)Nc2cccs2)c1=O [Compound 8]	200.3 to 201.8	51 to 75	76 to 100		
Cn1c(=N)c(F)cn(C(=S)Nc2ccc(Cl)cc2)c1=O [Compound 6, N-(4-chlorophenyl)-5-fluoro-4-imino-3-methyl-2-oxo-3,4-dihydropyrimidine-1(2H)-carbothioamide]		76 to 100	76 to 100		
Cn1c(=N)c(F)cn(C(=O)Nc2ccc(Cl)cc2)c1=O [Compound 2]	199 to 200.8			26 to 50	0 to 25
Cc1ccc(NC(=O)n2cc(F)c(=N)n(C)c2=O)cc1 [Compound 1]	184.7 to 186.2	51 to 75	0 to 25		
Cc1ccc(NC(=S)n2cc(F)c(=N)n(C)c2=O)cc1 [Compound 5]				76 to 100	76 to 100
COc1ccccc1NC(=O)n1cc(F)c(=N)n(C)c1=O [Compound 9]	168.9 to 170	26 to 50	76 to 100		
Cn1c(=N)c(F)cn(C(=O)Nc2cc(F)cc(F)c2)c1=O [Compound 3, N-(3,5-difluorophenyl)-5-fluoro-4-imino-3-methyl-2-oxo-3,4-dihydropyrimidine-1(2H)-carboxamide]	203 to 204.5	0 to 25	51 to 75		
